In ChEMBL document CHEMBL1201862, “PubChem BioAssay data set” (2004):
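96-well plates; 48 h exposure; 5 concentrations. Endpoints by linear interpolation between flanking doses. Not reached: highest tested concentration assigned. GI50 marks 50% less growth.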 Active and inactive are the calls of the source. Cut-off read from the data, not from the text of the source: active = GI50 up to about 1.1 µM and inactive = higher.

Tests used:
Test in all cases: DTP human tumour cell line panel, 48 h
SK-MEL-2 = system: SK-MEL-2
RXF 393 = system: RXF 393
OVCAR-5 = system: OVCAR-5
SNB-75 = system: SNB-75
SNB-19 = system: SNB-19
UACC-257 = system: UACC-257
SF-539 = system: SF-539
EKVX = system: EKVX
SF-295 = system: SF-295
OVCAR-4 = system: OVCAR-4
SR = system: SR
NCI-H226 = system: NCI-H226
HOP-62 = system: HOP-62
K562 = system: K562
SK-MEL-5 = system: SK-MEL-5
786-0 = system: 786-0
HT-29 = system: HT-29
OVCAR-3 = system: OVCAR-3

SMILES	GI50 (SK-MEL-2)	GI50 (RXF 393)	GI50 (OVCAR-5)	GI50 (SNB-75)	GI50 (SNB-19)	GI50 (UACC-257)	GI50 (SF-539)	GI50 (EKVX)	GI50 (SF-295)	GI50 (OVCAR-4)	GI50 (SR)	GI50 (NCI-H226)	GI50 (HOP-62)	GI50 (K562)	GI50 (SK-MEL-5)	GI50 (786-0)	GI50 (HT-29)	GI50 (OVCAR-3)
CCOC(=O)CCC(=O)C1c2cccc(O)c2C(=O)c2c(O)cc(C)cc21 (stereo unspecified)	0.344 µM (active)	0.391 µM (active)	0.706 µM (active)	0.578 µM (active)	0.327 µM (active)	1.41 µM (inactive)	0.226 µM (active)	1.82 µM (inactive)	0.332 µM (active)	0.569 µM (active)	0.743 µM (active)	0.719 µM (active)	0.656 µM (active)	0.429 µM (active)	0.676 µM (active)	1.32 µM (inactive)	2.47 µM (inactive)	0.533 µM (active)
CC(=O)CC(=O)Nc1ccc(OS(N)(=O)=O)cc1	> 100 µM (inactive)	> 100 µM (inactive)	> 100 µM (inactive)	> 100 µM (inactive)	> 100 µM (inactive)	> 100 µM (inactive)	> 100 µM (inactive)	> 100 µM (inactive)	> 100 µM (inactive)	> 100 µM (inactive)	> 100 µM (inactive)	> 100 µM (inactive)	> 100 µM (inactive)	> 100 µM (inactive)	> 100 µM (inactive)	> 100 µM (inactive)	> 100 µM (inactive)	> 100 µM (inactive)
COc1ccc(Cn2c(C)nc3c2C(=O)c2ccccc2C3=O)cc1	13.2 µM (inactive)	14 µM (inactive)	–	11.2 µM (inactive)	22.3 µM (inactive)	10.4 µM (inactive)	3.81 µM (inactive)	13.8 µM (inactive)	9.48 µM (inactive)	15.5 µM (inactive)	1.44 µM (inactive)	14.3 µM (inactive)	11.6 µM (inactive)	3.2 µM (inactive)	7.71 µM (inactive)	5.4 µM (inactive)	4.94 µM (inactive)	9.84 µM (inactive)
CC(=O)OCc1c2ccccc2c(C)c2c1cc(F)c1ccccc12	15.2 µM (inactive)	25.6 µM (inactive)	42.7 µM (inactive)	22.9 µM (inactive)	28.9 µM (inactive)	> 100 µM (inactive)	23.8 µM (inactive)	34.4 µM (inactive)	29.6 µM (inactive)	24.2 µM (inactive)	12.6 µM (inactive)	25.9 µM (inactive)	45.6 µM (inactive)	21.2 µM (inactive)	25.5 µM (inactive)	30.1 µM (inactive)	17.7 µM (inactive)	22.9 µM (inactive)
CC(=S)NNC(=O)c1ccncc1	> 100 µM (inactive)	> 100 µM (inactive)	> 100 µM (inactive)	> 100 µM (inactive)	> 100 µM (inactive)	> 100 µM (inactive)	> 100 µM (inactive)	> 100 µM (inactive)	> 100 µM (inactive)	> 100 µM (inactive)	> 100 µM (inactive)	> 100 µM (inactive)	> 100 µM (inactive)	> 100 µM (inactive)	> 100 µM (inactive)	> 100 µM (inactive)	> 100 µM (inactive)	> 100 µM (inactive)
[O-][Cl+3]([O-])([O-])O.c1ccc(/N=c2\nc(N3CCOCC3)ss2)cc1	17.9 µM (inactive)	17.3 µM (inactive)	28.9 µM (inactive)	19.9 µM (inactive)	30.5 µM (inactive)	15.8 µM (inactive)	18.3 µM (inactive)	21 µM (inactive)	18.7 µM (inactive)	15.7 µM (inactive)	16.6 µM (inactive)	61.1 µM (inactive)	41.3 µM (inactive)	16.5 µM (inactive)	34.2 µM (inactive)	16.4 µM (inactive)	20 µM (inactive)	–
